Results from US6753146B1, “System and method for evaluating agents which prevent oxidative damage” (priority 1999, dated 2004).

Tested on: human elastin promoter
Experiment: human elastin promoter activity by CAT assay in transgenic mouse fibroblast cultures exposed to hypoxanthine/xanthine oxidase
Type: cell-based
Conditions: 10,000 U/ml catalase added just prior to hypoxanthine and xanthine oxidase exposure
From the text: Fibroblasts derived from the skin of a homozygous line of transgenic mice expressing the 5.2-kb human elastin promoter, linked to a CAT reporter gene which enables measurement of elastin promoter activation, as previously described (Bernstein et al. J Invest Dermatol 105, 269-273, 1995; and Bernstein et al. Photochem Photobiol 64:369-74, 1996) were utilized. Although phenotypically normal, these mice express the human elastin promoter when assayed for CAT activity (Hsu-Wong et al. J. Biol. Chem. 269: 18072-18075, 1994; Bernstein et al. J Invest Dermatol 105, 269-273, 1995; and Bernstein et al. Photochem Photobiol 64:369-74, 1996). […]
DMEM with 10% FCS was removed, cells were rinsed in phosphate buffered saline (PBS), and DMEM was replaced without the addition of FCS. […] The optimum time span for incubation of cells with hypoxanthine/xanthine oxidase was determined by exposing cells to hypoxanthine/xanthine oxidase for 15, 30, 60, 90 and 120 minutes and determining CAT activity as outlined in Example 3. […]
To measure the expression of the human elastin promoter/CAT reporter gene construct in the skin of transgenic mice and in fibroblast cultures established from these animals, CAT activity was determined. […]

## catalase
  effect on the hypoxanthine/xanthine oxidase-induced increase in elastin promoter activity: fully eliminated this increase
90 minutes
  human elastin promoter activity (CAT assay), fold of untreated controls (mean±sem): 1.0±0.1 fold
